Experimental data reported in patent US20090275610A1, “TRICYCLIC OPIOID MODULATORS” (priority 2005, published 2009).
pEC50: −log10 of the molar value. Read-outs that look alike come from different tables or passages of the source.

What was measured:
delta opioid receptor = molecular target: T1, delta opioid receptor (Rattus norvegicus, UniProt P33533); experiment: Rat brain delta opioid receptor binding assay; conditions: rat forebrain membranes, [3H]DPDPE or [3H]naltrindole, 25° C., 2.5 h
T1 construct: the forebrains were homogenized in Tris buffer in a Teflon®-glass homogenizer; from tissue; host or cells: forebrain of male Wistar rats (particulate membrane preparation)
T1 sequence (P33533 whole entry): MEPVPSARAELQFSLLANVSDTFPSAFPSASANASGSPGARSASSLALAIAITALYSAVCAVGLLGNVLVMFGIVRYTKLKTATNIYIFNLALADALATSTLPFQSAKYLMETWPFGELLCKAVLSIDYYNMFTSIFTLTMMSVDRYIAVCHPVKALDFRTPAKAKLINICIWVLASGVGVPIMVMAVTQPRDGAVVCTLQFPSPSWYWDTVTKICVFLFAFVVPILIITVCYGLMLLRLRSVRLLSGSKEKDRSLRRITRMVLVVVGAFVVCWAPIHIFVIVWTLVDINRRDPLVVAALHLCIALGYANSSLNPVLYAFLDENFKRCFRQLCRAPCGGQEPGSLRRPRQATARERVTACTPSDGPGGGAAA
Method: Rat Brain Delta Opioid Receptor Binding Assay
(§1) Procedure: Male, Wistar rats (150-250 g, VAF, Charles River, Kingston, N.Y.) were killed by CO2, and their brains removed and placed immediately in ice cold Tris HCl buffer (50 mM, pH 7.4). The forebrains were separated from the remainder of the brain by a coronal transection, beginning dorsally at the colliculi and passing ventrally through the midbrain-pontine junction. After dissection, the forebrains were homogenized in Tris buffer in a Teflon®-glass homogenizer. The homogenate was diluted to a concentration of 1 g of forebrain tissue per 80 mL Tris and centrifuged at 39,000×g for 10 min. The pellet was resuspended in the same volume of Tris buffer containing 5 mM MgCl2 with several brief pulses from a Polytron homogenizer. This particulate preparation was used for the delta opioid binding assays.
(§2) Analysis: The data from the scintillation counter were used to calculate either the % inhibition compared to control binding (when only a single concentration of test compound was evaluated) or a Ki value (when a range of concentrations was tested). Percent inhibition was calculated as: [(total dpm−test compound dpm)/(total dpm−nonspecific dpm)]*100. Kd and Ki values were calculated using GraphPad PRISM data analysis program.

mu opioid receptor = molecular target: T2, mu opioid receptor (Rattus norvegicus, UniProt P33535); experiment: Rat brain mu opioid receptor binding assay; conditions: rat forebrain membranes, [3H]DAMGO, 25° C., 2.5 h
T2 construct: the forebrains were homogenized in Tris buffer in a Teflon®-glass homogenizer; from tissue; host or cells: forebrain of male Wistar rats (particulate membrane preparation)
T2 sequence (P33535 whole entry): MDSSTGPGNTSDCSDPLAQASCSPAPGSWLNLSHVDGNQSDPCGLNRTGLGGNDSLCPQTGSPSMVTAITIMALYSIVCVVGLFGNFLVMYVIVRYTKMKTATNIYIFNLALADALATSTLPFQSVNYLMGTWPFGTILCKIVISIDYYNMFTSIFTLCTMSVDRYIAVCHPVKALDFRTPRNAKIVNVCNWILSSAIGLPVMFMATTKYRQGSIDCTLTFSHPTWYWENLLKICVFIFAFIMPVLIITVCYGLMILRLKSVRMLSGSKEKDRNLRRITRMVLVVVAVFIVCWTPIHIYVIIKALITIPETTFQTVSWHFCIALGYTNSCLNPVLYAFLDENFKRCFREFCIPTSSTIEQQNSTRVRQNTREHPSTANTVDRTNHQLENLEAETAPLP
Method: Rat Brain Mu Opioid Receptor Binding Assay
as §1
as §2, with “concentrations” for “concentrations was”

[1] = molecular target: T3, delta opioid receptor (NG108-15 cell membranes) (Mus musculus, UniProt P32300); experiment: [35S]GTPγS binding assay in NG108-15 cell membranes (delta opioid); format: biochemical; conditions: for EC50: delta GTPγS binding EC50 (nM); for pEC50: read-out: delta GTPγS binding EC50
T3 construct: NG108-15 cell membranes were purchased from Applied Cell Sciences (Rockville, Md.); host or cells: NG108-15 cell membranes (purchased)
T3 sequence (P32300 whole entry): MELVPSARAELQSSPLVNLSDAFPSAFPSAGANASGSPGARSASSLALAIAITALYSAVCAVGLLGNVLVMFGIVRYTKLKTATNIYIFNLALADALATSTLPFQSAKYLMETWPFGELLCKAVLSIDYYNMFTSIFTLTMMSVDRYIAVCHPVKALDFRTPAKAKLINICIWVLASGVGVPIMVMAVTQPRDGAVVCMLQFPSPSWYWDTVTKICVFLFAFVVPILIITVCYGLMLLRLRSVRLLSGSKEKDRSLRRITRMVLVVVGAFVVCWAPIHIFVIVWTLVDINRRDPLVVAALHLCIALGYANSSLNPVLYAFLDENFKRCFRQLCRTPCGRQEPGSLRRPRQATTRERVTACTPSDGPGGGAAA
Method: Functional Assay: [^35S]GTPγS Binding Assay in NG108-15 Cell Membranes (Delta Opioid)
Methods: NG108-15 cell membranes were purchased from Applied Cell Sciences (Rockville, Md.). A sample (8 mg/mL) of membrane protein suspended in 10 mM TRIS-HCl pH 7.2, 2 mM EDTA, 10% sucrose. Membranes were maintained at 4-8° C. A 1 mL volume of membranes was added into 10 mL cold binding assay buffer. The assay buffer contained 50 mM Tris, pH 7.6, 5 mM MgCl2, 100 mM NaCl, 1 mM DTT and 1 mM EGTA. The membrane suspension was homogenized twice with a Polytron, and centrifuged at 3000 rpm for 10 min. The supernatant was then centrifuged at 18,000 rpm for 20 min. Ten mL assay buffer was added into the pellet containing tube. The pellet and buffer were mixed with a Polytron.
Incubation procedure: The pellet membranes (75 μg/mL) were preincubated with SPA (10 mg/mL) at 25° C. for 45 min in the assay buffer. The SPA (5 mg/mL) coupled with membranes (37.5 μg/mL) was then incubated with 0.1 nM [^35S]GTPγS in the same Tris buffer containing 100 μM GDP in total volume of 200 μL. Increasing concentrations of receptor agonists were used to stimulate [^35S]-GTPγS binding. The basal binding was tested in the absence of agonists and non-specific binding was tested in the presence of 10 μM unlabeled GTPγS. The data were analyzed on a Packard Top Count.
% of Basal=(stimulated−non specific)*100/(basal−non specific).
(§3) EC50 values were calculated using GraphPad Prism.

[2] = molecular target: T4, hMOR (CHO-hMOR cell membranes) (Homo sapiens, UniProt P35372); experiment: [35S]GTPγS binding assay in CHO-hMOR cell membranes; format: biochemical
T4 construct: host or cells: CHO cells expressing hMOR (purchased membranes)
T4 sequence (P35372 whole entry): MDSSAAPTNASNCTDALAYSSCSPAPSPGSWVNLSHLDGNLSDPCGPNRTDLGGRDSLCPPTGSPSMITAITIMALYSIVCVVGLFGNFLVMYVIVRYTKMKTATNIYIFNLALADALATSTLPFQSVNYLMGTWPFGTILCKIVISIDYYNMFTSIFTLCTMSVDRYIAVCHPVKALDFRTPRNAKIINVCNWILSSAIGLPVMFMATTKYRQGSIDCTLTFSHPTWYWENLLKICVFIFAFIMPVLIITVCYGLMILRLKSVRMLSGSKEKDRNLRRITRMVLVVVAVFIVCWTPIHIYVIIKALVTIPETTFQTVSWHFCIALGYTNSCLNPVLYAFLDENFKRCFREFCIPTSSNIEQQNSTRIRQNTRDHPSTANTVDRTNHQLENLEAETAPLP
Method: Functional Assay: [^35S]GTPγS Binding Assays in CHO-hMOR Cell Membranes
Methods: CHO-hMOR cell membranes were purchased from Receptor Biology, Inc. (Baltimore, Md.). About 10 mg/mL of membrane protein was suspended in 10 mM TRIS-HCl pH 7.2, 2 mM EDTA, 10% sucrose, and the suspension kept on ice. A 1 mL volume of membranes was added to 15 mL cold binding assay buffer containing 50 mM HEPES, pH 7.6, 5 mM MgCl2, 100 mM NaCl, 1 mM DTT and 1 mM EDTA. The membrane suspension was homogenized with a Polytron and centrifuged at 3,000 rpm for 10 min. The supernatant was then centrifuged at 18,000 rpm for 20 min. The pellet was resuspended in 10 mL assay buffer with a Polytron. The membranes were preincubated with wheat germ agglutinin coated SPA beads (Amersham) at 25° C. for 45 min in the assay buffer. The SPA bead (5 mg/mL) coupled membranes (10 μg/mL) were then incubated with 0.5 nM [^35S]GTPγS in the assay buffer. […] A range of concentrations of receptor agonist was used to stimulate [^35S]GTPγS binding. Both basal and non-specific binding was tested in the absence of agonist; non-specific binding determination included 10 μM unlabeled GTPγS.
Compounds were tested for function as antagonists by evaluating their potential to inhibit agonist-stimulated GTPγS binding. Radioactivity was quantified on a Packard TopCount. The following parameters were calculated:
as §3

[3] = rDOR (Ki, nM): Rat delta opioid receptor binding constant
[4] = rMOR (Ki, nM): Rat mu opioid receptor binding constant
[5] = read-out: rDOR (Ki, nM): Rat delta opioid receptor binding constant
[6] = read-out: rMOR (Ki, nM): Rat mu opioid receptor binding constant
[7] = CHO-hMOR cell membranes, read-out: mu GTPγS binding EC50

SMILES	Ki (delta opioid receptor; [3]) [nM]	Ki (mu opioid receptor; [4]) [nM]	EC50 [1] [nM]	pEC50 [2]	Ki (delta opioid receptor; [5]) [nM]	Ki (mu opioid receptor; [6]) [nM]	pEC50 [1]	pEC50 [2, 7]
Oc1cccc2c1Oc1ccccc1C2=C1CC2CCC(C1)N2Cc1ccccn1 [Cpd 21, 9-(8-pyridin-2-ylmethyl-8-azabicyclo[3.2.1]oct-3-ylidene)-9H-xanthen-4-ol]	0.007	0.1	21.8	< 5.00				
Oc1cccc2c1Oc1ccccc1C2=C1CC2CCC(C1)N2Cc1ccncc1 [Cpd 22]					0.97	358	5.57	< 5.00
Oc1cc(CN2C3CCC2CC(=C2c4ccccc4Oc4c(O)cccc42)C3)ccn1 [Cpd 23]					1.5	2.18	7.28	4.91
Oc1cccc2c1Oc1ccccc1C2=C1CC2CCC(C1)N2Cc1cccs1 [Cpd 24]					0.046	1.58	8.22	< 5.00
Oc1cccc2c1Oc1ccccc1C2=C1CC2CCC(C1)N2Cc1ccoc1 [Cpd 25, 9-(8-Furan-3-ylmethyl-8-aza-bicyclo[3.2.1]oct-3-ylidene)-9H-xanthen-4-ol]	0.26	0.56	1.08	5.55				
Oc1cccc2c1Oc1ccccc1C2=C1CC2CCC(C1)N2CC1CC1 [Cpd 26]					5.43	65.9	6.71	< 5.00
CC=C(C)CN1C2CCC1CC(=C1c3ccccc3Oc3c(O)cccc31)C2 [Cpd 27]					0.35	2.03	8.01	< 5.00
Oc1cccc2c1Oc1ccccc1C2=C1CC2CCC(C1)N2Cc1c[nH]c(-c2ccccc2)n1 [Cpd 28]					192	58.5	5.86	< 5.00
Oc1cccc2c1Oc1ccccc1C2=C1CC2CCC(C1)N2CCc1ccccc1 [Cpd 30]					63.5	27.7	5.53	< 5.00
Oc1cccc2c1Oc1ccccc1C2=C1CC2CCC(C1)N2Cc1cccnc1 [Cpd 31, 9-(8-pyridin-3-ylmethyl-8-azabicyclo[3.2.1]oct-3-ylidene)-9H-xanthen-4-ol]	0.028	1.23					6.87	5.09
Oc1cccc2c1Oc1ccccc1C2=C1CC2CCC(C1)N2Cc1ccccc1 [Cpd 32, 9-(8-benzyl-8-azabicyclo[3.2.1]oct-3-ylidene)-9H-xanthen-4-ol]	0.023	0.29	28.6	< 5.00				
Oc1cccc2c1Oc1ccccc1C2=C1CC2CCC(C1)N2Cc1ncc[nH]1 [Cpd 34]					0.028	0.53	8.48	5.79
